Results published in patent US7635706B2, “5HT4-antagonistic 4-(aminomethyl)-piperidine benzamides” (Janssen Pharmaceutica NV, priority 2003, dated 2009).

What was measured:
[1] = Metabolic stability in liver microsomes with NADPH-generating system, LC-MS analysis; assay type: in vitro ADME; settings: compound 5 μM, active microsomes 1 mg/ml
Description: Sub-cellular tissue preparations were made according to Gorrod et al. (Xenobiotica 5: 453-462, 1975) by centrifugal separation after mechanical homogenization of tissue. Liver tissue was rinsed in ice-cold 0.1 M Tris-HCl (pH 7.4) buffer to wash excess blood. Tissue was then blotted dry, weighed and chopped coarsely using surgical scissors. The tissue pieces were homogenized in 3 volumes of ice-cold 0.1 M phosphate buffer (pH 7.4).
Tissue homogenates were centrifuged at 9000×g for 20 minutes at 4° C. The resulting supernatant was stored at −80° C. and is designated ‘S9’.
The S9 fraction can be further centrifuged at 100.000×g for 60 minutes (4° C.). The resulting supernatant was carefully aspirated, aliquoted and designated ‘cytosol’. The pellet was re-suspended in 0.1 M phosphate buffer (pH 7.4) in a final volume of 1 ml per 0.5 g original tissue weight and designated ‘microsomes’.
All sub-cellular fractions were aliquoted, immediately frozen in liquid nitrogen and stored at −80° C. until use.
For the samples to be tested, the incubation mixture contained PBS (0.1M), compound (5 μM), microsomes (1 mg/ml) and a NADPH-generating system (0.8 mM glucose-6-phosphate, 0.8 mM magnesium chloride and 0.8 Units of glucose-6-phosphate dehydrogenase). Control samples contained the same material but the microsomes were replaced by heat inactivated (10 minutes at 95 degrees Celsius) microsomes. Recovery of the compounds in the control samples was always 100%.
The mixtures were preincubated for 5 minutes at 37 degrees Celsius. The reaction was started at time point zero (t=0) by addition of 0.8 mM NADP and the samples were incubated for 60 minutes (P60). The reaction was terminated by the addition of 2 volumes of DMSO. Then the samples were centrifuged for 10 minutes at 900×g and the supernatants were stored at room temperature for no longer as 24 hours before analysis. All incubations were performed in duplo. Analysis of the supernatants was performed with LC-MS analysis. Elution of the samples was performed on a Xterra MS C18 (50×4.6 mm, 5 μm, Waters, US). An Alliance 2790 (Supplier: Waters, US) HPLC system was used. Elution was with buffer A (25 mM ammoniumacetate (pH 5.2) in H2O/acetonitrile (95/5)), solvent B being acetonitrile and solvent C methanol at a flow rate of 2.4 ml/min. The gradient employed was increasing the organic phase concentration from 0% over 50% B and 50% C in 5 min up to 100% B in 1 minute in a linear fashion and organic phase concentration was kept stationary for an additional 1.5 minutes. Total injection volume of the samples was 25 μl.
A Quatro triple quadrupole mass spectrometer fitted with and ESP source was used as detector. The source and the desolvation temperature were set at 120 and 350° C. respectively and nitrogen was used as nebuliser and drying gas. Data were acquired in positive scan mode (single ion reaction). Cone voltage was set at 10 V and the dwell time was 1 second.
Metabolic stability was expressed as % metabolism of the compound after 15 or 60 minutes (equation given as example) of incubation in the presence of active microsomes (E(act))

[2] = molecular target: T1, h5-HT4b (Homo sapiens, UniProt Q13639); experiment: 5HT4 antagonism: [3H]GR113808 binding to membranes of h5-HT4b-HEK 293 clone 9 cells; settings: [3H]GR113808 0.1 nM, h5-HT4b-HEK 293 membranes, 30 min at 25° C.
T1 construct: expressed in transfected cells; host or cells: HEK 293 (clone 9), membrane preparation
T1 sequence (Q13639 whole entry): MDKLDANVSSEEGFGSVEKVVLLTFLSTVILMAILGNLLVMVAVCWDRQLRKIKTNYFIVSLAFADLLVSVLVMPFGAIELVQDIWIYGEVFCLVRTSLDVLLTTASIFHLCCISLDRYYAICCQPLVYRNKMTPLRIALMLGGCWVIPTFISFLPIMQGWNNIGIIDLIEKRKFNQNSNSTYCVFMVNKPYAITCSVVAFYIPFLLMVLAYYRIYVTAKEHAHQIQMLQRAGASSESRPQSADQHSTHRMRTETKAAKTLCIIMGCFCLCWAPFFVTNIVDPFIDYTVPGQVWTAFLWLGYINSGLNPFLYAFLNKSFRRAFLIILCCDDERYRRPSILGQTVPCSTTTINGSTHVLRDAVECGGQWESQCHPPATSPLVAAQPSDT
Description: h5-HT4b-HEK 293 clone 9 cells were cultured in 150 mm Petri dishes and washed twice with cold PBS. The cells were then scraped from the plates and suspended in 50 mM Tris-HCl buffer, pH 7.4 and harvested by centrifugation at 23,500 rpm for 10 minutes. The pellet was resuspended in 5 mM Tris-HCl, pH 7.4 and homogenized with an Ultra Turrax homogenizer. The membranes were collected by centrifugation at 30,000 rpm for 20 min, resuspended in 50 mM Tris-HCl pH 7.4 and stored at −80° C. For the experiment, assay mixtures (0.5 ml) contained 50 μl of the tritiated ligand (5-HT4 antagonist [^3H]GR113808 0.1 nM) and 0.4 ml membrane preparation (15 μg protein/ml). 50 μl of 10% DMSO was added for total binding. 50 μl of 1 μM of (+)-trans-(1-butyl-3-hydroxy4-piperidinyl)methyl 8-amino-7-chloro-2,3-dihydro-1,4-benzodioxin-5-carboxylate (a proprietary 5HT4 agonist of Janssen Pharmaceutica) was added for determination of non-specific binding.
The [^3H]GR113808 assay buffer was 50 mM HEPES-NaOH, pH 7.4. The mixtures were incubated for 30 min at 25° C. The incubation was terminated by filtration over a Unifilter 96 GF/B presoaked in 0.1% polyethylenimine, followed by six washing steps with 50 mM HEPES-NaOH, pH 7.4.

% metabolised compound ([1]; 15 minutes incubation)	% metabolised compound ([1]; 60 minutes incubation)	IC50 [2] [nM]	melting point [°C]	SMILES
26.5 (15″) %	–	–	–	O=C(NC[C@@H]1CCN(CCC2OCCO2)C[C@H]1O)c1cc(Cl)cc2c1OCCCO2 [WO-00/37461 Co. No. 143, reference compound]
4 (15″) %	–	–	–	O=C(NC[C@@H]1CCN(CCCO)C[C@H]1O)c1cc(Cl)c(Br)c2c1OCCCO2 [Co. No. 24]
–	68 (60″) %	–	–	CCCCN1CC[C@@H](CNC(=O)c2cc(Cl)cc3c2OCCCO3)[C@H](O)C1 [WO-00/37461 Co. No. 119, reference compound]
5 (15″) %	–	–	–	O=C(NC[C@@H]1CCN(CCCO)C[C@H]1O)c1cc(Cl)cc2c1OCCCO2 [WO-00/37461 Co. No. 144, reference compound]
–	–	8.71	131	CCOc1ccc(C(=O)NC[C@@H]2CCN(CCCC#N)C[C@H]2O)c2c1OCCCO2 [compound 145]
–	–	107	160	COc1ccc(C(=O)NC[C@@H]2CCNC[C@H]2O)c2c1OCCO2 [compound 117]
–	51 (60″) %	–	–	CCCCN1CC[C@@H](CNC(=O)c2cc(Cl)c(Br)c3c2OCCCO3)[C@H](O)C1 [Co. No. 22]
–	–	2.45	124	Cc1ccc(C(=O)NC[C@@H]2CCN(CCCCNS(C)(=O)=O)C[C@H]2O)c2c1OCCCO2 [compound 107]
10 (15″) %	–	–	–	O=C(NC[C@@H]1CCN(CCC2OCCO2)C[C@H]1O)c1cc(Cl)c(Cl)c2c1OCCCO2 [Co. No. 88]
–	–	1.23	115	CCCCN1CC[C@@H](CNC(=O)c2cc(Cl)c(Cl)c3c2OCCCO3)[C@H](O)C1 [compound 16]
–	–	1.32	127	CCCCN1CC[C@@H](CNC(=O)c2ccc(C)c3c2OCCCO3)[C@H](O)C1 [compound 1]
–	–	2.75	109	COCCCN1CC[C@@H](CNC(=O)c2ccc(C)c3c2OCCCO3)[C@H](O)C1 [compound 2]
